Test results: patent publication US5925621A, “Method for preventing sexually transmitted diseases” (priority 1997, dated 1999)

Tests used:
[1] = test system: Lactobacillus gasseri; assay: effect on normal vaginal flora (Lactobacillus gasseri growth); type: cell-based; conditions: 0.5 mg/ml
Protocol: This example illustrates the effect of the inhibitory agents of this invention on the normal vaginal flora. Lactobacillus gasseri, which is found in normal vaginal flora, was obtained from the American Type Culture Collection (Rockville, Md.) and cultured under anaerobic conditions at 37° C. in the presence of the desired test agents. Control samples without added test agents were also run. Samples were collected at twenty minute intervals starting at 120 minutes after the start of incubation through 240 minutes. The absorbance at 550 nm was used to estimate the cell density and inhibitory effects. Nonoxynol-9 was also evaluated for comparison purposes.

[2] = test system: sheep testicular hyaluronidase; assay: hyaluronidase inhibition (hyaluronic acid hydrolysis); type: biochemical; conditions: 10 minutes preincubation, pH 5.5; inactive = no inhibition at 1 mg/ml
Protocol: Hyaluronidase activity was quantitatively determined by measuring the extent of hyaluronic acid hydrolysis (i.e., the concentration of N-acetylglucosamine-reactive material formed from enzyme activity). Reaction mixtures (0.25 ml) containing the following were prepared: test compound (variable concentration); 0.1 M sodium acetate; 0.15 M sodium chloride; pH adjusted to 5.5; 7.2 units sheep testicular hyaluronidase (Sigma, Type III; H-2251) contained in an acetate buffer; 0.3 mg/ml hyaluronic acid (Sigma, from bovine vitreous humor; H-7630). The enzyme was preincubated with the test agent (1 mg/ml for screening purposes) for 10 minutes before starting the reaction by the addition of hyaluronic acid. The enzyme reaction was determined using the method of Aronson and Davidson (J. Biol. Chem. 241 437-440 (1967)). The reaction mixture was incubated for 30 minutes at room temperature. The reaction product was determined calorimetrically with p-dimethylaminobenzaldehyde (Reissig et al., J. Biol. Chem. 217 959-966 (1965)) by measuring the absorbance at 545 nm.
The reversibility of the hyaluronidase was determined by evaluating enzyme activity at different levels of enzyme (Ackermann and Potter, Proc. Soc. Exp. Biol. Med. 72 1-9 (1949)).

[3] = test system: vaginal/cervical epithelial and other cells; conditions: cited from earlier work
[4] = test system: MT2 cells; assay: cytotoxicity of test compound towards host (MT2) cells; type: cell-based; conditions: at the levels of Example 5
Protocol: Serial dilutions of the test compounds (ranging from 0.1 μg/ml to 1.0 mg/ml) were added to HIV-1 virus such that 50 μl inoculum produced between 70 to 100 syncytia per well in untreated wells containing MT2 cells. The HIV-1 used was strain IIIs propagated in, and harvested from, a T4-lymphobastoid cell line. Each serial dilution of the test compound with virus was placed in each of three wells containing MT2 cells. The test compound alone was added to a fourth well containing MT2 cells to test for possible cytotoxicity. Triplicate virus control samples (no added test compounds but containing the equivalent amounts of the RPMI medium) were also included.

Nonoxynol-9
inhibition of growth of Lactobacillus gasseri [1]: about 60%
IC50 hyaluronidase [2]: inactive
lowest concentration that can injure vaginal/cervical epithelial and other cells [3]: about 0.0005%
cytotoxic towards the MT2 cells [4]: did show cytotoxic effects
